Laboratory results as given in patent publication US6878548B2, “Composition for use in electroporation” (Pola Chemical Industries Inc., priority 2001, dated 2005).
Where a name gives a salt, the structure may show the parent alone. Read-outs that look alike come from different tables or passages of the source.

Tests used:
[1] = percutaneous permeability test using a Franz cell after electroporation, abdominal skin
Procedure: Calcein sodium salt was used as a model labeled drug at a concentration of 1 mM. The ingredients were stirred and solubilized to obtain the compositions for electroporation (solutions) of the present invention. The percutaneous absorption promotion actions of these compositions for electroporation were measured by percutaneous permeability test using a Franz cell. That is, a skin sample was collected from the abdomen of a hairless rat, and subcutaneous fat was removed from the sample. The skin sample was loaded in the Franz cell as a partition wall with its horny cell layer facing towards the donor side. The receiver side was filled with an isotonic phosphate-buffered saline (PBS). The donor side was filled with 3 mL of the aforementioned composition for electroporation of the present invention. The receiver side was stirred at 1200 rpm by using a star-head type stirrer. After the electroporation, 0.3 mL of the solution in the receiver side was serially collected in a time course and added with the same amount of isotonic phosphate-buffered saline (PBS) to examine the percutaneous permeability. […] The amount of calcein sodium salt was measured by a fluorometer. Further, as for the conditions of electroporation, ECM-830 produced by BTX was used, 10 pulses of 10 ms at 300 V was applied at intervals of 1 minute immediately after the drug administration, and then the power was turned off.
The same examination as in Example 1 was conducted by using various metal chlorides.
The same examination as in Example 1 was conducted by using trivalent metal ion chlorides. As for the electroporation conditions, 10 pulses of 10 ms at 300 V were applied at intervals of 1 second immediately after the drug administration. As the trivalent metal ion chlorides, iron chloride and aluminum chloride were used.
The same examination as in Example 1 was conducted by using FITC-dextran as a model labeled drug. As for the electroporation conditions, 10 pulses of 10 ms at 300 V were applied at intervals of 1 second immediately after the drug administration. As the FITC-dextran, FD4 (molecular weight: 4300), FD10 (molecular weight: 9600) and FD40 (molecular weight: 35600) were used.

[2] = percutaneous permeability test using a Franz cell after electroporation, dorsal skin; type: in vitro ADME, hairless rat
Excerpt: However, dorsal skin of a hairless rat was used as the skin sample. […] As the model labeled drugs, sodium dexamethasone phosphate (DEX.Na), ritodrine hydrochloride (RIT), dimemorfan phosphate (DIM), caffeine (CAF), azelastine hydrochloride (AZR), tipepidine hibenzate (TIP), benzoic acid (BA), phenytoin (PEN) and testosterone (TES) were used.

iron chloride
percutaneous absorption (calcein), trivalent metal ion chlorides vs calcium ions [1]: neither of the trivalent metal ions significantly promoted percutaneous absorption

[Cl-].[K+] [potassium chloride]
percutaneous absorption promotion action (buprenorphine hydrochloride) ([1]; Example 8, sample of Example 4 with metal chloride changed, all 150 mM, buprenorphine hydrochloride 0.02% by weight, FIGS. 5 and 6): promoted percutaneous absorption

[Cl][Al]([Cl])[Cl] [aluminum chloride]
percutaneous absorption (calcein), trivalent metal ion chlorides vs calcium ions [1]: neither of the trivalent metal ions significantly promoted percutaneous absorption

CN1CCCC(=C(c2cccs2)c2cccs2)C1.O=C(O)c1ccccc1C(=O)c1ccc(O)cc1 [tipepidine hibenzate]
percutaneous absorption of the model labeled drug on addition of calcium ions ([2]; Example 11, dorsal skin, addition of CaCl2, 10 pulses of 10 ms at 300 V at intervals of 1 second, FIG. 9): significantly promoted percutaneous absorption

CN1CCCC(n2nc(Cc3ccc(Cl)cc3)c3ccccc3c2=O)CC1 (stereo not drawn) [azelastine hydrochloride]
percutaneous absorption of the model labeled drug on addition of calcium ions [2]: significantly promoted percutaneous absorption

[Ba+2].[Cl-].[Cl-] [barium chloride]
absorption of calcein during electroporation ([1]; Example 9, various divalent metal chlorides added, FIG. 7): promoted the absorption of calcein
